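Method: 48-hour compound exposure of cells in 96-well plates, five concentrations, linear interpolation of endpoints. The concentration for 50% growth inhibition is given as GI50.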 Calls of active or inactive are those of the source. Cut-off read from the data, not from the text of the source: active = GI50 up to about 1.1 µM and inactive = higher.
Assays:
Test in all cases: NCI tumour cell line growth inhibition, 48 h
[1] = system: SK-OV-3
[2] = system: EKVX
[3] = system: M14
[4] = system: UACC-257
[5] = system: RPMI-8226
[6] = system: RXF 631
[7] = system: A498
[8] = system: LXFL 529
[9] = system: KM12
[10] = system: 786-0
[11] = system: NCI-H226
[12] = system: SF-295
[13] = system: SF-268
[14] = system: OVCAR-8
[15] = system: Malme-3M
[16] = system: DMS-273
[17] = system: SNB-75
[18] = system: HOP-92
[19] = system: U-251
[20] = system: SK-MEL-5
[21] = system: K562
[22] = system: SNB-78
[23] = system: OVCAR-5
[24] = system: SF-539
[25] = system: ACHN
[26] = system: SNB-19
[27] = system: KM-20L2
[28] = system: IGROV-1
[29] = system: HCT-15
[30] = system: NCI-H522
[31] = system: NCI-H23
[32] = system: CCRF-CEM
[33] = system: MOLT-4
[34] = system: SK-MEL-28
[35] = system: HL-60
[36] = system: COLO 205
[37] = system: OVCAR-4
[38] = system: CAKI-1
[39] = system: SK-MEL-2
[40] = system: TK-10
[41] = system: NCI-H460
[42] = system: HT-29
[43] = system: XF498
[44] = system: UO-31
[45] = system: LOX IMVI
[46] = system: A549
[47] = system: OVCAR-3
[48] = system: M19-MEL
[49] = system: DLD-1
[50] = system: HOP-62
[51] = system: HCC 2998
[52] = system: UACC-62
[53] = system: SW-620

COc1cc2c(cc1OC)C(C(CO)CO)N(CC(O)CCl)CC2 (stereo not drawn)
GI50 [1]: > 100 µM (inactive) | GI50 [2]: > 100 µM (inactive) | GI50 [3]: > 100 µM (inactive) | GI50 [4]: > 100 µM (inactive) | GI50 [5]: > 100 µM (inactive) | GI50 [6]: > 100 µM (inactive) | GI50 [7]: > 100 µM (inactive) | GI50 [8]: > 100 µM (inactive) | GI50 [9]: > 100 µM (inactive) | GI50 [10]: > 100 µM (inactive) | GI50 [11]: > 100 µM (inactive) | GI50 [12]: > 100 µM (inactive) | GI50 [13]: > 100 µM (inactive) | GI50 [14]: > 100 µM (inactive) | GI50 [15]: > 100 µM (inactive) | GI50 [16]: > 100 µM (inactive) | GI50 [17]: > 100 µM (inactive) | GI50 [18]: > 100 µM (inactive) | GI50 [19]: > 100 µM (inactive) | GI50 [20]: > 100 µM (inactive) | GI50 [21]: > 100 µM (inactive) | GI50 [22]: > 100 µM (inactive) | GI50 [23]: > 100 µM (inactive) | GI50 [24]: > 100 µM (inactive) | GI50 [25]: > 100 µM (inactive) | GI50 [26]: > 100 µM (inactive) | GI50 [27]: > 100 µM (inactive) | GI50 [28]: > 100 µM (inactive) | GI50 [29]: > 100 µM | GI50 [30]: > 100 µM (inactive) | GI50 [31]: > 100 µM (inactive) | GI50 [32]: > 100 µM (inactive) | GI50 [33]: > 100 µM (inactive) | GI50 [34]: > 100 µM (inactive) | GI50 [35]: > 100 µM (inactive) | GI50 [36]: > 100 µM (inactive) | GI50 [37]: > 100 µM (inactive) | GI50 [38]: > 100 µM (inactive) | GI50 [39]: > 100 µM (inactive) | GI50 [40]: > 100 µM (inactive) | GI50 [41]: > 100 µM (inactive) | GI50 [42]: > 100 µM (inactive) | GI50 [43]: > 100 µM (inactive) | GI50 [44]: 86.5 µM (inactive) | GI50 [45]: > 100 µM (inactive) | GI50 [46]: > 100 µM (inactive) | GI50 [47]: > 100 µM (inactive) | GI50 [48]: > 100 µM (inactive) | GI50 [49]: > 100 µM (inactive) | GI50 [50]: > 100 µM (inactive) | GI50 [51]: > 100 µM (inactive) | GI50 [52]: > 100 µM (inactive) | GI50 [53]: > 100 µM (inactive)

Source: ChEMBL document CHEMBL1201862, “PubChem BioAssay data set” (2004)
